This test addresses T1, Peroxisome proliferator-activated receptor gamma (Homo sapiens, UniProt P37231).
T1 sequence (P37231 whole entry): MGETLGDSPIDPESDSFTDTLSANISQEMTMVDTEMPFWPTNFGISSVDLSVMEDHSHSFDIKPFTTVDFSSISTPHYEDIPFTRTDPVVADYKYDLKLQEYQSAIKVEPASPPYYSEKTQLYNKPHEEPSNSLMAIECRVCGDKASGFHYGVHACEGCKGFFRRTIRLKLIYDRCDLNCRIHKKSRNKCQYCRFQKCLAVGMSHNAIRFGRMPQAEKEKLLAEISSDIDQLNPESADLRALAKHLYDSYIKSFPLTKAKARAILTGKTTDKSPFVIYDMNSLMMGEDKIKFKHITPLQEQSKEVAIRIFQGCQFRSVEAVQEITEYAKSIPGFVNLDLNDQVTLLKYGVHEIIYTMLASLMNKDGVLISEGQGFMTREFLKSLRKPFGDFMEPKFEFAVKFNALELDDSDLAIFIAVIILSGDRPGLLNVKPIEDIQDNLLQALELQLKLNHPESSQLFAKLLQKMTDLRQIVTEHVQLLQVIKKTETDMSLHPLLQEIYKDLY
Format: functional, cell-based, HepG2.
Description: Agonist activity at PPARgamma receptor expressed in human HepG2 cells by PPRE-luciferase reporter gene assay
With `Cc1ccc(S(=O)(=O)Oc2ccc(N(CC(=O)O)S(=O)(=O)c3ccc(C)cc3)cc2)cc1`, the EC50 (in general, the concentration that produces a half-maximal response) was 15.3 nM. With `COC1=C(OC)Cc2c(cc[n+]3c(CCC(=O)O)c4cc(OC)c(OC)cc4cc23)C1` the figure was 220000 nM; with `COc1ccc(-c2nc(SCC(=O)O)n(-c3ccccn3)c2-c2ccc(OC)cc2)cc1`, 224 nM.

The values above are taken from ChEMBL document CHEMBL1782050, “Discovery of new nanomolar peroxisome proliferator-activated receptor γ activators via elaborate ligand-based modeling” (Eur J Med Chem, 2011).
